Laboratory results published in patent US20260092071A1, “COMPOUNDS AND COMPOSITIONS AS SMARCA2/4 DEGRADERS AND USES THEREOF” (REGENTS OF THE UNIVERSITY OF MICHIGAN, priority 2022, published 2026).
Where two headings read alike, the source gives them in different places.

Columns and labels:
[1] = molecular target: SMARCA2 (Homo sapiens, UniProt P51531); experiment: HiBit assay in engineered HT1080 CRISPR knock-in cell, 6 hrs (B series), SMARCA2; assay type: cell-based; conditions: 6 hrs incubation; for DC50: HT1080 CRISPR knock-in cells, read-out: SMARC A2 HT1080 HiBit DC50; for Dmax: HT-1080, HT1080 CRISPR knock-in cells, read-out: SMARC A2 HT1080 HiBit Dmax (%)
SMARCA2, sequence (P51531 whole entry): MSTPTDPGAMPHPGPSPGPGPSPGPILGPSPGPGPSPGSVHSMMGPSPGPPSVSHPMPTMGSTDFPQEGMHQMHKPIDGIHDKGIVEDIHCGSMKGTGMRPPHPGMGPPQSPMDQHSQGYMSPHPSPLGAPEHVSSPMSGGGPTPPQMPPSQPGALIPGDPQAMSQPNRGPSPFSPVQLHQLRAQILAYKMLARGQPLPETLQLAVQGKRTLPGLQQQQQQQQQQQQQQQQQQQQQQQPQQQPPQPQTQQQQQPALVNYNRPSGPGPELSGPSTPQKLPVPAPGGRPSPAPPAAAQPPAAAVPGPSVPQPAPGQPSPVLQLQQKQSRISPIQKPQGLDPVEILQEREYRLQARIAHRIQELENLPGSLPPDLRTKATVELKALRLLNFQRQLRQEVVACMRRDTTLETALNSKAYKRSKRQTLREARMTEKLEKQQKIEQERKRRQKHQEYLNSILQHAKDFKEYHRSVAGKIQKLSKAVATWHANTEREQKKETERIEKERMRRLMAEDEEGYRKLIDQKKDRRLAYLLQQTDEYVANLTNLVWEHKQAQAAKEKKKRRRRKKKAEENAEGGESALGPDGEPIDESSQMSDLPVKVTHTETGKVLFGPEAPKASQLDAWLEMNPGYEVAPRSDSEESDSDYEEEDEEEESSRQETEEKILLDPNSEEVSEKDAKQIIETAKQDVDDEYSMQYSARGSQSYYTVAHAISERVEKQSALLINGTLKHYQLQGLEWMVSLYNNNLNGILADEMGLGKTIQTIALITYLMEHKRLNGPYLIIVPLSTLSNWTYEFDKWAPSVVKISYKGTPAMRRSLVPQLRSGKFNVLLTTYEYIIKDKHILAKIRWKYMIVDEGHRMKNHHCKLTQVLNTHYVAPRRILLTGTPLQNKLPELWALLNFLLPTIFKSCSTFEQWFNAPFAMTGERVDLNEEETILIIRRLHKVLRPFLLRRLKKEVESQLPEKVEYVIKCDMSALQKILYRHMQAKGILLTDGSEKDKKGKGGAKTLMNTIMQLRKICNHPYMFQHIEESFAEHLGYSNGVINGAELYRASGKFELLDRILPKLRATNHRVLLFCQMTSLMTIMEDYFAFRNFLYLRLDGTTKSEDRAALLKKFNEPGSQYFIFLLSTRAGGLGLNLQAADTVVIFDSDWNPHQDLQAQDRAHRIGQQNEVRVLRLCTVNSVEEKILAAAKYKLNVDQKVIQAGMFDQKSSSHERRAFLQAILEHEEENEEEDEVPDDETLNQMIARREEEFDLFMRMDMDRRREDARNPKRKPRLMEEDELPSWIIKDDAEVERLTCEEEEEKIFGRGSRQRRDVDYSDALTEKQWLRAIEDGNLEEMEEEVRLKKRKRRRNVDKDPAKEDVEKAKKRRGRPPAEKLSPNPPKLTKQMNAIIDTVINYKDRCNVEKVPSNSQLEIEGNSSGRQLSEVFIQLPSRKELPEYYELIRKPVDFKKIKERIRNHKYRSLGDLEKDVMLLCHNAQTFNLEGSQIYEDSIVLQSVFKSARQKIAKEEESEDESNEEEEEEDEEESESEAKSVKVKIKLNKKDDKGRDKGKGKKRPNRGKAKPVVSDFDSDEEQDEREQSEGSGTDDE
In short: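 HT1080 CRISPR knock-in cells carrying HiBiT-tagged SMARCA2 seeded onto compound (0.1% DMSO) at 2000 cells/well. Incubated 6 h at 37 °C, 5% CO2, then lysed with Nano-Glo HiBiT lytic reagent containing LgBiT, and luminescence read.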

[2] = molecular target: SMARCA4 (Homo sapiens, UniProt P51532); experiment: HiBit assay in engineered HT1080 CRISPR knock-in cell, 6 hrs (B series), SMARCA4; assay type: cell-based; conditions: for DC50: HT1080 CRISPR knock-in cells, read-out: SMARC A4 HT1080 HiBit DC50
SMARCA4, sequence (P51532 whole entry): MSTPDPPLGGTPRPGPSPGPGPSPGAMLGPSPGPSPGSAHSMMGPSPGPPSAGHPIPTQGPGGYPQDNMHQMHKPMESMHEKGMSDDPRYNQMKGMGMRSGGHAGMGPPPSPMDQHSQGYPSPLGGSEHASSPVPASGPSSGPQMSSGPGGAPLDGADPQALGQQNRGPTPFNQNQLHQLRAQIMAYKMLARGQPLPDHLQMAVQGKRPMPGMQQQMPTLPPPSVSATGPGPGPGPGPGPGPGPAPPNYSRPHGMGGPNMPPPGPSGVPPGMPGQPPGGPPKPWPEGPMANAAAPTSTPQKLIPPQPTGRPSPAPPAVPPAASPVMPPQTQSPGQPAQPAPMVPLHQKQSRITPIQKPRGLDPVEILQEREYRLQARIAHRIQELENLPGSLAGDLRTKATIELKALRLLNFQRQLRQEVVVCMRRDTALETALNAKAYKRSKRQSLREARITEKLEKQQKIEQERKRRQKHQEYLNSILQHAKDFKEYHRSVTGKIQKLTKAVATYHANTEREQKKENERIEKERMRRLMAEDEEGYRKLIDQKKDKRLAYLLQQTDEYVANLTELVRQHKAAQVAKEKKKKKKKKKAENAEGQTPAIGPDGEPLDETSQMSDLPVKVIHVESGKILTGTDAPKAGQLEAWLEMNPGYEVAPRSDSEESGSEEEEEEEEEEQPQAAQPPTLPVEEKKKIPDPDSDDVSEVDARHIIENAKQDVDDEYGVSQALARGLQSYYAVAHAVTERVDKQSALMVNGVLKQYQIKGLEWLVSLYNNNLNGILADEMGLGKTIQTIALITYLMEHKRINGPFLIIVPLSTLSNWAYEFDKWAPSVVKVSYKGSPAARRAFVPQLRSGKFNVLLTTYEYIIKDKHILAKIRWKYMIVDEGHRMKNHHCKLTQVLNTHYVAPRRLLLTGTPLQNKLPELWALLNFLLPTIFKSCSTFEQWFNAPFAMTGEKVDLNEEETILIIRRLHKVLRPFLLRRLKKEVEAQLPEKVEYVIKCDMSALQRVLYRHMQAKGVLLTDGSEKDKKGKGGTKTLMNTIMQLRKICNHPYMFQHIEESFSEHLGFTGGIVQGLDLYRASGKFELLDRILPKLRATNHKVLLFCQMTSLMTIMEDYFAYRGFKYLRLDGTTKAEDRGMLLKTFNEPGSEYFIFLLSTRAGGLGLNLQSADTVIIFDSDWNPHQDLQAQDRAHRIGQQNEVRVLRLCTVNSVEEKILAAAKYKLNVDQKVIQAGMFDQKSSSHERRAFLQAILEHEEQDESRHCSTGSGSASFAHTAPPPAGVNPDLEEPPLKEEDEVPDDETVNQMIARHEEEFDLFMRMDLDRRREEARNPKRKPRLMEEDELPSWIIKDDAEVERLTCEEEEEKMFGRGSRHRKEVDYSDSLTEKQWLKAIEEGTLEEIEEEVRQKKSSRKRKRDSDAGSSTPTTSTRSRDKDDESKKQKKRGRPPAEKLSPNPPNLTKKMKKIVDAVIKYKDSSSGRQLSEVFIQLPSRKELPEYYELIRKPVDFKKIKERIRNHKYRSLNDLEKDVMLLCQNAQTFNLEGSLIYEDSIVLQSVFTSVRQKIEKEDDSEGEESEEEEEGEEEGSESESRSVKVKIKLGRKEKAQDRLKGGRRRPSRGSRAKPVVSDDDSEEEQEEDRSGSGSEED
In short: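 Using a 6 hr treatment window at 37° C and 5% CO2, tagged HT1080 knock-in cells were exposed to test compounds with DMSO vehicle held at 0.1%. Signal came from lytic LgBiT/substrate reagent added after incubation, with control wells lacking LgBiT, and was read as luminescence.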

[3] = HT-1080, HT1080 CRISPR knock-in cells, 6 hrs incubation, read-out: SMARC A4 HT1080 HiBit Dmax(%)

| SMILES | DC50 [1] [nM] | Dmax [1] [%] | DC50 ([2]; 6 hrs incubation) [nM] | Dmax [2, 3] [%] | Dmax ([2]; HT-1080, read-out: SMARC A4 HT1080 HiBit Dmax(%), HT1080 CRISPR knock-in cells, 6 hrs incubation) [%] |
| --- | --- | --- | --- | --- | --- |
| Cc1ncsc1-c1ccc([C@H](C)NC(=O)[C@@H]2C[C@@H](O)CN2C(=O)[C@@H](NC(=O)C23CCC(CN4CCC(c5ccc6c(c5)-n5c(nc(=O)c7c(Cl)cccc75)C6(C)C)CC4)(CC2)C3)C(C)(C)C)cc1 [Compound B77, (2S,4R)-1-((S)-2-(4-((4-(4-chloro-7,7-dimethyl-5-oxo-5,7-dihydroindolo[1,2-a]quinazolin-10-yl)piperidin-1-yl)methyl)bicyclo[2.2.1]heptane-1-carboxamido)-3,3-dimethylbutanoyl)-4-hydroxy-N-((S)-1-(4-(4-methylthiazol-5-yl)phenyl)ethyl)pyrrolidine-2-carboxamide] | < 100 | > 90 | 100 to 500 | 50 to 69 |  |
| Cc1ncsc1-c1ccc([C@H](C)NC(=O)[C@@H]2C[C@@H](O)CN2C(=O)[C@H](C(C)C)n2cc([C@H]3CC[C@H](CN4CCC(c5ccc6c(c5)C(C)(C)c5nc(=O)c7c(Cl)cccc7n5-6)CC4)CC3)nn2)cc1 [Compound B78, (2S,4R)-1-((S)-2-(4-((1r,4S)-4-((4-(4-chloro-7,7-dimethyl-5-oxo-5,7-dihydroindolo[1,2-a]quinazolin-9-yl)piperidin-1-yl)methyl)cyclohexyl)-1H-1,2,3-triazol-1-yl)-3-methylbutanoyl)-4-hydroxy-N—((S)-1-(4-(4-methylthiazol-5-yl)phenyl)ethyl)pyrrolidine-2-carboxamide] | < 100 | > 90 | < 100 |  | > 90 |
| C=C[C@H](NC(=O)[C@@H]1C[C@@H](O)CN1C(=O)[C@@H](NC(=O)[C@H]1CC[C@H](CN2CCC(c3ccc4c(c3)C(C)(C)c3nc(=O)c5c(Cl)cccc5n3-4)CC2)CC1)C(C)(C)C)c1ccc(-c2scnc2C)cc1 [Compound B79, (2S,4R)-1-((S)-2-((11,4S)-4-((4-(4-chloro-7,7-dimethyl-5-oxo-5,7-dihydroindolo[1,2-a]quinazolin-9-yl)piperidin-1-yl)methyl)cyclohexane-1-carboxamido)-3,3-dimethylbutanoyl)-4-hydroxy-N-((S)-1-(4-(4-methylthiazol-5-yl)phenyl)allyl)pyrrolidine-2-carboxamide] | < 100 | 70 to 90 | 100 to 500 | < 50 |  |
| Cc1ncsc1-c1ccc(CNC(=O)[C@@H]2C[C@@H](O)CN2C(=O)[C@@H](NC(=O)C2(F)CC2)C(C)(C)C)c(OCC2CCC(N3CCC(c4ccc5c(c4)-n4c(nc(=O)c6c(Cl)cccc64)C5(C)C)CC3)CC2)c1 (stereo partly drawn) [Compound B80, (2S,4R)-N-(2-((4-(4-(4-chloro-7,7-dimethyl-5-oxo-5,7-dihydroindolo[1,2-a]quinazolin-10-yl)piperidin-1-yl)cyclohexyl)methoxy)-4-(4-methylthiazol-5-yl)benzyl)-1-((S)-2-(1-fluorocyclopropane-1-carboxamido)-3,3-dimethylbutanoyl)-4-hydroxypyrrolidine-2-carboxamide] | < 100 | > 90 | < 100 | > 90 |  |
| Cc1ncsc1-c1ccc([C@H](C)NC(=O)[C@@H]2C[C@@H](O)CN2C(=O)[C@@H](c2cc(OC3CCC(N4CCC(c5ccc6c(c5)-n5c(nc(=O)c7c(Cl)cccc75)C6(C)C)CC4)CC3)no2)C(C)C)cc1 (stereo partly drawn) [Compound B81, (2S,4R)-1-((R)-2-(3-((4-(4-(4-chloro-7,7-dimethyl-5-oxo-5,7-dihydroindolo[1,2-a]quinazolin-10-yl)piperidin-1-yl)cyclohexyl)oxy)isoxazol-5-yl)-3-methylbutanoyl)-4-hydroxy-N-((S)-1-(4-(4-methylthiazol-5-yl)phenyl)ethyl)pyrrolidine-2-carboxamide] | < 100 | > 90 | < 100 | < 50 |  |
| Cc1ncsc1-c1ccc([C@H](C)NC(=O)[C@@H]2C[C@@H](O)CN2C(=O)[C@@H](c2cc(OCC3(CN4CCC(c5ccc6c(c5)C(C)(C)c5nc(=O)c7c(Cl)cccc7n5-6)CC4)CC3)no2)C(C)C)cc1 [Compound B82, (2S,4R)-1-((R)-2-(3-((1-((4-(4-chloro-7,7-dimethyl-5-oxo-5,7-dihydroindolo[1,2-a]quinazolin-9-yl)piperidin-1-yl)methyl)cyclopropyl)methoxy)isoxazol-5-yl)-3-methylbutanoyl)-4-hydroxy-N-((S)-1-(4-(4-methylthiazol-5-yl)phenyl)ethyl)pyrrolidine-2-carboxamide] | < 100 | 70 to 90 | < 100 | 50 to 69 |  |
| Cc1ncsc1-c1ccc([C@H](C)NC(=O)[C@@H]2C[C@@H](O)CN2C(=O)[C@@H](NC(=O)CCCn2cc(-c3ccc4c(c3)-n3c(nc(=O)c5c(Cl)cccc53)C4(C)C)cn2)C(C)(C)C)cc1 [Compound B83, (2S,4R)-1-((S)-2-(4-(4-(4-chloro-7,7-dimethyl-5-oxo-5,7-dihydroindolo[1,2-a]quinazolin-10-yl)-1H-pyrazol-1-yl)butanamido)-3,3-dimethylbutanoyl)-4-hydroxy-N-((S)-1-(4-(4-methylthiazol-5-yl)phenyl)ethyl)pyrrolidine-2-carboxamide] | 100 to 500 | < 50 | > 1000 | < 50 |  |
| Cc1cc(C(C(=O)N2C[C@H](O)C[C@H]2C(=O)N[C@@H](CCCCCN2CCC(c3ccc4c(c3)-n3c(nc(=O)c5c(Cl)cccc53)C4(C)C)CC2)c2ccc(-c3scnc3C)cc2)C(C)C)on1 (stereo partly drawn) [Compound B84, (2S,4R)-N-((S)-6-(4-(4-chloro-7,7-dimethyl-5-oxo-5,7-dihydroindolo[1,2-a]quinazolin-10-yl)piperidin-1-yl)-1-(4-(4-methylthiazol-5-yl)phenyl)hexyl)-4-hydroxy-1-(3-methyl-2-(3-methylisoxazol-5-yl)butanoyl)pyrrolidine-2-carboxamide] | < 100 | > 90 | < 100 | > 90 |  |
| Cc1cc(C(C(=O)N2C[C@H](O)C[C@H]2C(=O)N[C@@H](CCCCCN2CCC(c3ccc4c(c3)C(C)(C)c3nc(=O)c5c(Cl)cccc5n3-4)CC2)c2ccc(-c3scnc3C)cc2)C(C)C)on1 (stereo partly drawn) [Compound B85, (2S,4R)-N-((S)-6-(4-(4-chloro-7,7-dimethyl-5-oxo-5,7-dihydroindolo[1,2-a]quinazolin-9-yl)piperidin-1-yl)-1-(4-(4-methylthiazol-5-yl)phenyl)hexyl)-4-hydroxy-1-(3-methyl-2-(3-methylisoxazol-5-yl)butanoyl)pyrrolidine-2-carboxamide] | < 100 | > 90 | < 100 | > 90 |  |
| Cc1ncsc1-c1ccc([C@H](C)NC(=O)[C@@H]2C[C@@H](O)CN2C(=O)[C@@H](n2cc(C3CC4(C3)CC(N3CCC(c5ccc6c(c5)-n5c(nc(=O)c7c(Cl)cccc75)C6(C)C)CC3)C4)nn2)C(C)(C)C)cc1 (stereo partly drawn) [Compound B86, (2S,4R)-1-((S)-2-(4-(6-(4-(4-chloro-7,7-dimethyl-5-oxo-5,7-dihydroindolo[1,2-a]quinazolin-10-yl)piperidin-1-yl)spiro[3.3]heptan-2-yl)-1H-1,2,3-triazol-1-yl)-3,3-dimethylbutanoyl)-4-hydroxy-N—((S)-1-(4-(4-methylthiazol-5-yl)phenyl)ethyl)pyrrolidine-2-carboxamide] | < 100 | > 90 | < 100 | 70 to 90 |  |
